Reference: patent publication US9738932B2, “Biomarkers for cardiovascular side-effects induced by cox-2 inhibitory compounds” (FIRALIS SAS, priority 2005, dated 2017)

Test system: mRNA expression in cardiovascular tissues
Experiment: Affymetrix GeneChip mRNA expression profiling of monkey tissues (iliac vein, pulmonary vein, aorta, carotid artery, heart) after two-week oral-gavage treatment
Details: iliac vein
[1] = group average (Vioxx without A60055)
[2] = group avg, Vioxx without A60055

## O=C(O)Cc1ccccc1Nc1c(Cl)cccc1Cl [Voltaren]
[1]
  ACE (209749_s_at) mRNA expression, Avg fold changes vs control: 1.1 fold
  B2M (216231_s_at) mRNA expression, Avg fold changes vs control: 1.2 fold
  BCL6 (215990_s_at) mRNA expression, Avg fold changes vs control: 1.0 fold
  BTN2A2 (205298_s_at) mRNA expression, Avg fold changes vs control: 1.1 fold
  CCR1 (205098_at) mRNA expression, Avg fold changes vs control: 1.3 fold
  CD2 (205831_at) mRNA expression, Avg fold changes vs control: 1.1 fold
  CD48 (204118_at) mRNA expression, Avg fold changes vs control: 1.2 fold
  CD53 (203416_at) mRNA expression, Avg fold changes vs control: 1.4 fold
  CDC2 (210559_s_at) mRNA expression, Avg fold changes vs control: 1.2 fold
  CYBB (203922_s_at) mRNA expression, Avg fold changes vs control: 1.1 fold
  EMP3 (203729_at) mRNA expression, Avg fold changes vs control: 0.8 fold
  FCER1G (204232_at) mRNA expression, Avg fold changes vs control: 1.5 fold
  FCGR2A (203561_at) mRNA expression, Avg fold changes vs control: 1.4 fold
  FCGRT (218831_s_at) mRNA expression, Avg fold changes vs control: 0.9 fold
  FKBP11 (219117_s_at) mRNA expression, Avg fold changes vs control: 0.7 fold
  FKBP11 (219118_at) mRNA expression, Avg fold changes vs control: 0.8 fold
  GP6 (220336_s_at) mRNA expression, Avg fold changes vs control: 1.0 fold
  HCLS1 (202957_at) mRNA expression, Avg fold changes vs control: 1.1 fold
  HEM1 (209734_at) mRNA expression, Avg fold changes vs control: 1.1 fold
  HLA-A (210514_x_at) mRNA expression, Avg fold changes vs control: 1.0 fold
  HLA-A (213932_x_at) mRNA expression, Avg fold changes vs control: 1.1 fold
  HLA-C (211799_x_at) mRNA expression, Avg fold changes vs control: 0.8 fold
  HLA-E (200904_at) mRNA expression, Avg fold changes vs control: 1.2 fold
  HLA-F (221978_at) mRNA expression, Avg fold changes vs control: 1.4 fold
  ICAM1 (202637_s_at) mRNA expression, Avg fold changes vs control: 1.0 fold
  IL13RA1 (210904_s_at) mRNA expression, Avg fold changes vs control: 0.9 fold
  PIK3CD (203879_at) mRNA expression, Avg fold changes vs control: 1.3 fold
  PRKCBP1 (209048_s_at) mRNA expression, Avg fold changes vs control: 1.0 fold
  PRKCBP1 (209049_s_at) mRNA expression, Avg fold changes vs control: 1.0 fold
  PTPN7 (204852_s_at) mRNA expression, Avg fold changes vs control: 1.4 fold
  SIGIRR (52940_at) mRNA expression, Avg fold changes vs control: 1.0 fold
  STAT1 (200887_s_at) mRNA expression, Avg fold changes vs control: 1.1 fold
  STAT1 (AFFX-HUMISGF3A/M97935_3_at) mRNA expression, Avg fold changes vs control: 1.0 fold
  STAT3 (208992_s_at) mRNA expression, Avg fold changes vs control: 1.1 fold
  TCIRG1 (204158_s_at) mRNA expression, Avg fold changes vs control: 1.0 fold
  THY1 (213869_x_at) mRNA expression, Avg fold changes vs control: 0.6 fold
  TMPO (209753_s_at) mRNA expression, Avg fold changes vs control: 1.1 fold
  TMSB10 (217733_s_at) mRNA expression, Avg fold changes vs control: 1.2 fold
  TNFRSF21 (218856_at) mRNA expression, Avg fold changes vs control: 1.2 fold
  TRB@ (210915_x_at) mRNA expression, Avg fold changes vs control: 1.0 fold
  TRB@ (213193_x_at) mRNA expression, Avg fold changes vs control: 1.2 fold
[2]
  209813_x_at avg fold change vs control: 1.0 fold
  AIF1 (209901_x_at) avg fold change vs control: 1.2 fold
  AIF1 (213095_x_at) avg fold change vs control: 1.5 fold
  B2M (201891_s_at) avg fold change vs control: 1.4 fold
  BCL3 (204908_s_at) avg fold change vs control: 1.3 fold
  BTN3A1 (207485_x_at) avg fold change vs control: 1.1 fold
  BTN3A3 (38241_at) avg fold change vs control: 1.2 fold
  BTN3A3 (204820_s_at) avg fold change vs control: 1.3 fold
  BTN3A3 (204821_at) avg fold change vs control: 1.5 fold
  C1QA (218232_at) avg fold change vs control: 1.2 fold
  C1QB (202953_at) avg fold change vs control: 1.1 fold
  C1R (212067_s_at) avg fold change vs control: 1.4 fold
  C1S (208747_s_at) avg fold change vs control: 1.7 fold
  C2 (203052_at) avg fold change vs control: 1.2 fold
  C4A (208451_s_at) avg fold change vs control: 2.4 fold
  CASP1 (209970_x_at) avg fold change vs control: 1.5 fold
  CASP1 (211367_s_at) avg fold change vs control: 1.3 fold
  CCL2 (216598_s_at) avg fold change vs control: 9.0 fold
  CCL3 (205114_s_at) avg fold change vs control: 1.4 fold
  CCL5 (1405_i_at) avg fold change vs control: 2.2 fold
  CCL8 (214038_at) avg fold change vs control: 1.8 fold
  CCL18 (209924_at) avg fold change vs control: 1.6 fold
  CCL19 (210072_at) avg fold change vs control: 1.6 fold
  CCNB2 (202705_at) avg fold change vs control: 1.3 fold
  CD3D (213539_at) avg fold change vs control: 1.9 fold
  CD8A (205758_at) avg fold change vs control: 1.4 fold
  CD14 (201743_at) avg fold change vs control: 1.1 fold
  CD74 (209619_at) avg fold change vs control: 1.3 fold
  CLU (208791_at) avg fold change vs control: 1.0 fold
  CMAH (210571_s_at) avg fold change vs control: 1.4 fold
  CTSC (201487_at) avg fold change vs control: 1.4 fold
  CTSK (202450_s_at) avg fold change vs control: 1.3 fold
  CTSS (202902_s_at) avg fold change vs control: 1.3 fold
  CX3CR1 (205898_at) avg fold change vs control: 1.6 fold
  CXCL9 (203915_at) avg fold change vs control: 1.3 fold
  CXCL10 (204533_at) avg fold change vs control: 1.3 fold
  CXCL11 (210163_at) avg fold change vs control: 2.1 fold
  CXCL11 (211122_s_at) avg fold change vs control: 2.0 fold
  CXCL12 (209687_at) avg fold change vs control: 1.3 fold
  CYBA (203028_s_at) avg fold change vs control: 1.0 fold
  CYBB (203923_s_at) avg fold change vs control: 1.2 fold
  CYP1B1 (202436_s_at) avg fold change vs control: 1.3 fold
  CYP3A5 (214234_s_at) avg fold change vs control: 1.2 fold
  CYP11B1 (214630_at) avg fold change vs control: 0.9 fold
  DUSP6 (208893_s_at) avg fold change vs control: 1.1 fold
  ECGF1 (204858_s_at) avg fold change vs control: 1.4 fold
  ECM1 (209365_s_at) avg fold change vs control: 1.1 fold
  F2RL1 (206429_at) avg fold change vs control: 1.5 fold
  F13A1 (203305_at) avg fold change vs control: 1.3 fold
  FCGR1A (214511_x_at) avg fold change vs control: 1.0 fold
  FCGR3A (204006_s_at) avg fold change vs control: 1.5 fold
  G1P2 (205483_s_at) avg fold change vs control: 2.1 fold
  GZMB (210164_at) avg fold change vs control: 1.8 fold
  HCA127 (220040_x_at) avg fold change vs control: 0.5 fold
  HCK (208018_s_at) avg fold change vs control: 1.2 fold
  HFE (210864_x_at) avg fold change vs control: 0.9 fold
